Measured values from patent publication US9834518B2, “Compounds for inhibiting cell proliferation in EGFR-driven cancers” (ARIAD Pharmaceuticals, Inc., priority 2011, dated 2017).

How the values were obtained:
[1] = target: human EGFR (native sequence) (Homo sapiens, UniProt P00533); experiment: Kinase inhibition, human EGFR (native sequence); type: biochemical; details: 10 μM ATP; 10 pt curves, 3 μM top concentration (singlicates)
Outline: (§1)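 Kinase inhibition was measured against native human EGFR and the L858R and L858R/T790M mutants. Compounds were run as 10-point curves in singlicate from a 3 μM top concentration, with 10 μM ATP.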

[2] = target: BAF3 EGFR DEL T790M PURO POOL (Homo sapiens, UniProt P00533, DEL746-750/T790M, cells depend on it); experiment: Cell proliferation (MTT), BAF3 EGFR DEL T790M; type: cell-based
BAF3 EGFR DEL T790M PURO POOL, sequence (P00533 with tags, fused parts or gaps DEL746-750/T790M): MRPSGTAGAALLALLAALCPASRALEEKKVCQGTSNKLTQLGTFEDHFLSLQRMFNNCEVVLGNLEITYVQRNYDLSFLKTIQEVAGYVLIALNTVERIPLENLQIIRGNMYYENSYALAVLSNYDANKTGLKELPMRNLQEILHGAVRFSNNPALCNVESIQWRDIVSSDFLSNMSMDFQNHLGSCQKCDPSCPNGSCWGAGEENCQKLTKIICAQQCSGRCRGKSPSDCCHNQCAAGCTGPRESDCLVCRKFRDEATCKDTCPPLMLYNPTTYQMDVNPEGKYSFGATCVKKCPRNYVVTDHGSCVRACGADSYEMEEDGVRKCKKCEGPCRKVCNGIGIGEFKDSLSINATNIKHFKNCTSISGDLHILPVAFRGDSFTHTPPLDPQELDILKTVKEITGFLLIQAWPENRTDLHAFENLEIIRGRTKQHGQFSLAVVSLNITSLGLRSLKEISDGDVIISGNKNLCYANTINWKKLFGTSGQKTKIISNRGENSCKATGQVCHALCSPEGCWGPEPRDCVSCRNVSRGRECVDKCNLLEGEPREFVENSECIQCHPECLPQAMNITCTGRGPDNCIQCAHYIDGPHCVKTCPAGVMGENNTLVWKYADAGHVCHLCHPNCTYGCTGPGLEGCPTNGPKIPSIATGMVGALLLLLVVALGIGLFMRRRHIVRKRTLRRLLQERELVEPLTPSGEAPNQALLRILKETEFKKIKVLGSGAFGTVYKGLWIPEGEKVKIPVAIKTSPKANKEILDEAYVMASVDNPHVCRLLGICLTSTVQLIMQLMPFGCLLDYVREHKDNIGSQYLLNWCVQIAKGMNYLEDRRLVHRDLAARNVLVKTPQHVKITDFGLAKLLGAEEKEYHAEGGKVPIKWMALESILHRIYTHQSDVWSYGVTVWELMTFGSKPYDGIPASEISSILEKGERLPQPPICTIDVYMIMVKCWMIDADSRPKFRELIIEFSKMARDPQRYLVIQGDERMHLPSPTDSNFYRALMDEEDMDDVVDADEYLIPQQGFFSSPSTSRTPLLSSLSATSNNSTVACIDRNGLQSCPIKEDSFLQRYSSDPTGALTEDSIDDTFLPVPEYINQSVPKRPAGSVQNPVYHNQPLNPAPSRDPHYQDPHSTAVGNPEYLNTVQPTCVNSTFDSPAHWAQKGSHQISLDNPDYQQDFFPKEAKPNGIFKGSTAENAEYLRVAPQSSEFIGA
Outline: (§2)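 Growth inhibition of EGFR-mutant BaF3 cells was assessed with an MTT assay. A BaF3 line expressing wildtype EGFR served as comparator.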

[3] = system: BAF3 PARENTAL; experiment: Cell proliferation (MTT), BAF3 parental; type: cell-based; details: Mus musculus
Experimental: We also assessed the antiproliferative activity of compounds of Formula (I) against BaF3 cells expressing the target EGFR mutations or control (i.e., cell lines expressing wildtype EGFR). Assays were conducted using MTT.

[4] = target: EGFR bearing the L858R mution (Homo sapiens, UniProt P00533, L858R); experiment: Kinase inhibition, EGFR L858R; type: biochemical; details: 10 μM ATP; 10 pt curves, 3 μM top concentration (singlicates)
EGFR bearing the L858R mution, sequence (P00533 25-1210 L858R): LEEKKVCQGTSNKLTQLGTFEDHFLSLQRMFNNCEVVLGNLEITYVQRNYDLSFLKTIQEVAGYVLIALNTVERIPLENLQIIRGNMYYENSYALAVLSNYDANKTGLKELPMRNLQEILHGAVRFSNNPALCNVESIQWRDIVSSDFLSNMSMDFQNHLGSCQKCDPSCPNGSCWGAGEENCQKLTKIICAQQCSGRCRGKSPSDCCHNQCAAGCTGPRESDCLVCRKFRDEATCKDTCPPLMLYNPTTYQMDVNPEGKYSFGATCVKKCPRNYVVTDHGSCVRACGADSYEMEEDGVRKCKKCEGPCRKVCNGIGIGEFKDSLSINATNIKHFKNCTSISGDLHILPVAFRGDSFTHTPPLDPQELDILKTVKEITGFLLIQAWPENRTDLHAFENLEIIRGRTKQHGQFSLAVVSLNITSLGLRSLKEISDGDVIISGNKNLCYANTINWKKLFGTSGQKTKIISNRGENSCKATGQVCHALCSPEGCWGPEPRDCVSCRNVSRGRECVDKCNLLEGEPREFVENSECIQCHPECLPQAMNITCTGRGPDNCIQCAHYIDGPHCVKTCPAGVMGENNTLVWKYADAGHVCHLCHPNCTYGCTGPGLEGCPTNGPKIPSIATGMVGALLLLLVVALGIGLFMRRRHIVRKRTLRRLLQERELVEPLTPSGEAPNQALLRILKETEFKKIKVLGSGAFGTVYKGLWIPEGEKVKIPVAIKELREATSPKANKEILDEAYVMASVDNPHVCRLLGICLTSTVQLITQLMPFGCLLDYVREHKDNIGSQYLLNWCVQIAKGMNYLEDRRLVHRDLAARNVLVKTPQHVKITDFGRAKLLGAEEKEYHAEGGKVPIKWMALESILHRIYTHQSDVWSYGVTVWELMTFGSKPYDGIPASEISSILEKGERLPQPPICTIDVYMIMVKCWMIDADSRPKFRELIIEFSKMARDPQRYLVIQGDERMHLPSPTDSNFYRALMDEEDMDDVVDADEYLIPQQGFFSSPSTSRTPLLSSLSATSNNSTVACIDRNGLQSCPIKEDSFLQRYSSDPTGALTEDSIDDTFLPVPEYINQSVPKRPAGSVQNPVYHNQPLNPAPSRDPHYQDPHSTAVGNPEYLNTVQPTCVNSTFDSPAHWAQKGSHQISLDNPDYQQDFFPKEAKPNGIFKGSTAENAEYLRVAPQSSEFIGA
Outline: as §1

[5] = system: BAF3 EGFR L858R-T790M PURO POOL; experiment: Cell proliferation (MTT), BAF3 EGFR L858R-T790M; type: cell-based; details: Ba/F3 EGFR
Outline: as §2

[6] = target: EGFR bearing the L858R/T790M double mutation (Homo sapiens, UniProt P00533, L858R/T790M); experiment: Kinase inhibition, EGFR L858R/T790M; type: biochemical; details: 10 μM ATP; 10 pt curves, 3 μM top concentration (singlicates)
EGFR bearing the L858R/T790M double mutation, sequence (P00533 25-1210 T790M/L858R): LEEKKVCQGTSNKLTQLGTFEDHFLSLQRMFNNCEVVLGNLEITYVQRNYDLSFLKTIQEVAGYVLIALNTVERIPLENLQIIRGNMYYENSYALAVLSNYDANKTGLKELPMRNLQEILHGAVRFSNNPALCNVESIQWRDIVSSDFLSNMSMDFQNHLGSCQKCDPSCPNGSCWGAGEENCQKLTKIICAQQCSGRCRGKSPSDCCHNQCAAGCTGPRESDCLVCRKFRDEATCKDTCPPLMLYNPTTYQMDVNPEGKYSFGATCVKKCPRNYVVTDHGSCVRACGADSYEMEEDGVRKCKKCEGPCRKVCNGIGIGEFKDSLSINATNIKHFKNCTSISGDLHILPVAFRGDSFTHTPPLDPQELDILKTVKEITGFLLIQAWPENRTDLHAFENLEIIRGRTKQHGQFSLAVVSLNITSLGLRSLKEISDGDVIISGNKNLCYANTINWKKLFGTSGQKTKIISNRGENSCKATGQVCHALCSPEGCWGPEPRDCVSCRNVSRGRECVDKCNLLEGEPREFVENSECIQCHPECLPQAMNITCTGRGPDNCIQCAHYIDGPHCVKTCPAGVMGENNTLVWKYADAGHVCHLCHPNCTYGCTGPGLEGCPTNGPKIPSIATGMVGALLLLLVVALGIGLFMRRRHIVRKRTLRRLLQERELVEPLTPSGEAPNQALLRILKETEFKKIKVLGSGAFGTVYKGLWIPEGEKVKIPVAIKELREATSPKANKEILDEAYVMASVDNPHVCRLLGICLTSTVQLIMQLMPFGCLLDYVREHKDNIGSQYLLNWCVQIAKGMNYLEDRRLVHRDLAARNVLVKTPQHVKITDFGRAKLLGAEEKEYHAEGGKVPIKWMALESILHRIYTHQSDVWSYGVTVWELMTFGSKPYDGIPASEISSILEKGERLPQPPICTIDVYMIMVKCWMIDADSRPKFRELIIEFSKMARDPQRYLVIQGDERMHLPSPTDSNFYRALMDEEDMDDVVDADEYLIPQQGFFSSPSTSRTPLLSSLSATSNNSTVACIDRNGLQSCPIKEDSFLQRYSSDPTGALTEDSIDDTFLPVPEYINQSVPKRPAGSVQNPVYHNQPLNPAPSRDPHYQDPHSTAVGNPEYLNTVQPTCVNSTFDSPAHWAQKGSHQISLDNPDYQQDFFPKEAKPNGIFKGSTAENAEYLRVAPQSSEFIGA
Outline: as §1

human EGFR (native sequence), sequence (P00533 25-1210): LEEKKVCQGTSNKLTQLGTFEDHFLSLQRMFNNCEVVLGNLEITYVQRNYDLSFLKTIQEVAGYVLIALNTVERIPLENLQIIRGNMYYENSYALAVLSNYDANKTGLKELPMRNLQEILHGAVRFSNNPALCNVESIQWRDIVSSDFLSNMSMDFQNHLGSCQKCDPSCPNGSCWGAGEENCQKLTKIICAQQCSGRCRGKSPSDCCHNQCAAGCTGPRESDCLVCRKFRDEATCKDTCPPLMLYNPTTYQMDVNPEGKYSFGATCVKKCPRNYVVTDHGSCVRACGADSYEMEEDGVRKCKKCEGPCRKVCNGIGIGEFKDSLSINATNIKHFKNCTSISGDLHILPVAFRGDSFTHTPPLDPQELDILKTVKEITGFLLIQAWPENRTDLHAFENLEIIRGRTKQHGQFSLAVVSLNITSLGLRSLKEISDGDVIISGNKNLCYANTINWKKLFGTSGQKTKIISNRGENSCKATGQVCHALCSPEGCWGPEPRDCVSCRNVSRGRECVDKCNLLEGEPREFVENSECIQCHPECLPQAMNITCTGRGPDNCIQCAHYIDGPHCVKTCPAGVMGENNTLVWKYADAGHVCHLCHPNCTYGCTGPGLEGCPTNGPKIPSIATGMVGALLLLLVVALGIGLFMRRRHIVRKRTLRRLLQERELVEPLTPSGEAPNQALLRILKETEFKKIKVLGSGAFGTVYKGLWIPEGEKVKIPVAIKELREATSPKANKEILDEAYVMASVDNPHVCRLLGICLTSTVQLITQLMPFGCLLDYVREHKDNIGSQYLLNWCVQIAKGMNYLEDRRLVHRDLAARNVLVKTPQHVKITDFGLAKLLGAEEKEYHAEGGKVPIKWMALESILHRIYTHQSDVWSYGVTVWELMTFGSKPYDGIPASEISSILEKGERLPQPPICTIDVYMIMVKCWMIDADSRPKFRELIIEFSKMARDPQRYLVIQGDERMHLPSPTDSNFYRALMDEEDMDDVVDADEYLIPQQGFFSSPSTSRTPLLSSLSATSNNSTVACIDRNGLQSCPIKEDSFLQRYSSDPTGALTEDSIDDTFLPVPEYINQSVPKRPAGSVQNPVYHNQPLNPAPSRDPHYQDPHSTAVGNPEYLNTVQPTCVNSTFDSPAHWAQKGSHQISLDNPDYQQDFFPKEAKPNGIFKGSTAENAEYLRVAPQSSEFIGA

SMILES	IC50 [1]	IC50 [2]	IC50 [4]	IC50 [5]	IC50 [6]	IC50 [3]
C=CC(=O)Nc1cc(Nc2ncc(Cl)c(Nc3ccccc3P(C)(C)=O)n2)c(OC)cc1N1CCOCC1 [Example 32, N-(5-((5-chloro-4-((2-(dimethylphosphoryl)phenyl)amino)pyrimidin-2-yl)amino)-4-methoxy-2-morpholinophenyl)acrylamide]	≥ 250 nM	< 51 nM	< 51 nM	51 to 100 nM	< 51 nM	≥ 250 nM
C=CC(=O)Nc1cc(Nc2ncc(Cl)c(Nc3ccccc3P(C)(C)=O)n2)c(OC)cc1N(C)CCN(CC)CC [Example 33, N-(5-((5-chloro-4-((2-(dimethylphosphoryl)phenyl)amino)pyrimidin-2-yl)amino)-2-((2-(diethylamino)ethyl)(methyl)amino)-4-methoxyphenyl)acrylamide]	< 51 nM	< 51 nM	< 51 nM	< 51 nM	< 51 nM	≥ 250 nM
C=C(CN(C(C)C)C(C)C)C(=O)Nc1ccc(OC)c(Nc2ncc(Cl)c(Nc3ccccc3P(C)(C)=O)n2)c1 [Example 35, N-(3-((5-chloro-4-((2-(dimethylphosphoryl)phenyl)amino)pyrimidin-2-yl)amino)-4-methoxyphenyl)-2-((diisopropylamino)methyl)acrylamide]	< 51 nM	< 51 nM	< 51 nM	< 51 nM	< 51 nM	≥ 250 nM
C=CC(=O)Nc1cc(Nc2ncc(Cl)c(Nc3ccccc3P(C)(C)=O)n2)c(OC)cc1OCC(COC)N(C)C (stereo not drawn) [Example 37, N-(5-((5-chloro-4-((2-(dimethylphosphoryl)phenyl)amino)pyrimidin-2-yl)amino)-2-(2-(dimethylamino)-3-methoxypropoxy)-4-methoxyphenyl)acrylamide]	< 51 nM	< 51 nM	< 51 nM	< 51 nM	< 51 nM	≥ 250 nM
C=CC(=O)Nc1cc(Nc2ncc(Cl)c(Nc3ccccc3P(C)(C)=O)n2)c(OC)cc1N(C)CCN(C)CCOC [Example 38, N-(5-((5-chloro-4-((2-(dimethylphosphoryl)phenyl)amino)pyrimidin-2-yl)amino)-4-methoxy-2-((2-((2-methoxyethyl)(methyl)amino)ethyl)(methyl)amino)phenyl)acrylamide]	< 51 nM	< 51 nM	< 51 nM	< 51 nM	< 51 nM	≥ 250 nM
C=CC(=O)Nc1cc(Nc2ncc(Cl)c(Nc3ccccc3P(C)(C)=O)n2)c(OC)cc1OCCN(C)CCOC [Example 39, N-(5-((5-chloro-4-((2-(dimethylphosphoryl)phenyl)amino)pyrimidin-2-yl)amino)-4-methoxy-2-(2-((2-methoxyethyl)(methyl)amino)ethoxy)phenyl)acrylamide]	< 51 nM	< 51 nM	< 51 nM	< 51 nM	< 51 nM	≥ 250 nM
C=CC(=O)Nc1cc(Nc2ncc(Cl)c(Nc3ccccc3P(C)(C)=O)n2)c(OC)cc1CCCN(CC)CC [Example 40, N-(5-((5-chloro-4-((2-(dimethylphosphoryl)phenyl)amino)pyrimidin-2-yl)amino)-2-(3-(diethylamino)propyl)-4-methoxyphenyl)acrylamide]	< 51 nM	< 51 nM	< 51 nM	≥ 250 nM	< 51 nM	≥ 250 nM
C=CC(=O)Nc1cc(Nc2ncc(Cl)c(Nc3ccccc3P(C)(C)=O)n2)c(OC)cc1CCN(CC)CC [Example 41, N-(5-((5-chloro-4-((2-(dimethylphosphoryl)phenyl)amino)pyrimidin-2-yl)amino)-2-(2-(diethylamino)ethyl)-4-methoxyphenyl)acrylamide]	< 51 nM	< 51 nM	< 51 nM	51 to 100 nM	< 51 nM	≥ 250 nM
COc1ccc(N2C(=O)C=CC2=O)cc1Nc1ncc(Cl)c(Nc2ccccc2P(C)(C)=O)n1 [Example 46, 1-(3-((5-chloro-4-((2-(dimethylphosphoryl)phenyl)amino)pyrimidin-2-yl)amino)-4-methoxyphenyl)-1H-pyrrole-2,5-dione]	≥ 250 nM	≥ 250 nM	101 to 250 nM	≥ 250 nM	≥ 250 nM	≥ 250 nM
C=CC(=O)Nc1cc(Nc2ncc(Cl)c(Nc3ccccc3P(=O)(CC)CC)n2)c(OC)cc1F [Example 48, N-(5-((5-chloro-4-((2-(diethylphosphoryl)phenyl)amino)pyrimidin-2-yl)amino)-2-fluoro-4-methoxyphenyl)acrylamide]	< 51 nM	< 51 nM	< 51 nM	< 51 nM	< 51 nM	≥ 250 nM
C=CC(=O)Nc1cc(Nc2ncc(Cl)c(Nc3cccc(C)c3P(=O)(CC)CC)n2)c(OC)cc1F [Example 49, N-(5-((5-chloro-4-((2-(diethylphosphoryl)-3-methylphenyl)amino)pyrimidin-2-yl)amino)-2-fluoro-4-methoxyphenyl)acrylamide]	< 51 nM	< 51 nM	< 51 nM	< 51 nM	< 51 nM	≥ 250 nM

Continued, in another order:

IC50 [1]	IC50 [2]	IC50 [4]	IC50 [5]	IC50 [6]	SMILES	IC50 [3]
< 51 nM	< 51 nM	< 51 nM	< 51 nM	< 51 nM	C=CC(=O)Nc1cc(Nc2ncc(Cl)c(Nc3ccccc3P(C)(C)=O)n2)c(OC)cc1OC(COC)CN(C)C (stereo not drawn) [Example 28, N-(5-((5-chloro-4-((2-(dimethylphosphoryl)phenyl)amino)pyrimidin-2-yl)amino)-2-((1-(dimethylamino)-3-methoxypropan-2-yl)oxy)-4-methoxyphenyl)acrylamide]	≥ 250 nM
≥ 250 nM	< 51 nM	101 to 250 nM	101 to 250 nM	51 to 100 nM	C=CC(=O)Nc1cc(Nc2ncc(Cl)c(Nc3ccccc3P(C)(C)=O)n2)c(OC)cc1N(C)CCCN(C)C [Example 34, N-(5-((5-chloro-4-((2-(dimethylphosphoryl)phenyl)amino)pyrimidin-2-yl)amino)-2-((3-(dimethylamino)propyl)(methyl)amino)-4-methoxyphenyl)acrylamide]	≥ 250 nM
101 to 250 nM	< 51 nM	< 51 nM	< 51 nM	< 51 nM	C=CC(=O)N(C)c1ccc(OC)c(Nc2ncc(Cl)c(Nc3ccccc3P(C)(C)=O)n2)c1 [Example 44, N-(3-((5-chloro-4-((2-(dimethylphosphoryl)phenyl)amino)pyrimidin-2-yl)amino)-4-methoxyphenyl)-N-methylacrylamide]	≥ 250 nM
< 51 nM	< 51 nM	< 51 nM	< 51 nM	< 51 nM	C=CC(=O)Nc1ccc(OCC)c(Nc2ncc(Cl)c(Nc3ccccc3P(C)(C)=O)n2)c1 [Example 47, N-(3-((5-chloro-4-((2-(dimethylphosphoryl)phenyl)amino)pyrimidin-2-yl)amino)-4-ethoxyphenyl)acrylamide]	≥ 250 nM
< 51 nM	< 51 nM	< 51 nM	< 51 nM	< 51 nM	C=CC(=O)Nc1ccc(OC)c(Nc2ncc(Cl)c(Nc3cccc(C)c3P(=O)(CC)CC)n2)c1 [Example 50, N-(3-((5-chloro-4-((2-(diethylphosphoryl)-3-methylphenyl)amino)pyrimidin-2-yl)amino)-4-methoxyphenyl)acrylamide]	≥ 250 nM
51 to 100 nM	≥ 250 nM	< 51 nM	≥ 250 nM	< 51 nM	COc1cc(P(C)(C)=O)ccc1Nc1ncc(Cl)c(Oc2cccc(NC(=O)/C=C/CN(C)C)c2)n1 [Example 51, (E)-N-(3-((5-chloro-2-((4-(dimethylphosphoryl)-2-methoxyphenyl)amino)pyrimidin-4-yl)oxy)phenyl)-4-(dimethylamino)but-2-enamide]	≥ 250 nM
< 51 nM	< 51 nM	< 51 nM	< 51 nM	< 51 nM	C=CC(=O)Nc1cc(Nc2ncc(Cl)c(Nc3ccccc3P(=O)(CC)CC)n2)c(OC)cc1OCCN(C)C [Example 52, N-(5-((5-chloro-4-((2-(diethylphosphoryl)phenyl)amino)pyrimidin-2-yl)amino)-2-(2-(dimethylamino)ethoxy)-4-methoxyphenyl)acrylamide]	≥ 250 nM
51 to 100 nM	< 51 nM	< 51 nM	< 51 nM	< 51 nM	C=CC(=O)Nc1ccc(OC)c(Nc2ncc(Cl)c(Nc3cccc(F)c3P(C)(C)=O)n2)c1 [Example 53, N-(3-((5-chloro-4-((2-(dimethylphosphoryl)-3-fluorophenyl)amino)pyrimidin-2-yl)amino)-4-methoxyphenyl)acrylamide]	≥ 250 nM
101 to 250 nM	< 51 nM	< 51 nM	< 51 nM	< 51 nM	C=CC(=O)Nc1ccc(OC)c(Nc2ncc(Cl)c(Nc3ccc(F)cc3P(C)(C)=O)n2)c1 [Example 54, N-(3-((5-chloro-4-((2-(dimethylphosphoryl)-4-fluorophenyl)amino)pyrimidin-2-yl)amino)-4-methoxyphenyl)acrylamide]	≥ 250 nM
